Where a name gives a salt, the structure may show the parent alone.
Assays:
D3 receptors = biological target: T1, D3 receptors (Chlorocebus aethiops, UniProt P52703); assay: D3 receptor binding (displacement of 0.5 nM 3H-YM 09151-2); parameters: species or system African Green monkey; details: pellets of COS cells with recombinant D3, nonspecific binding with 1 mM spiperone
T1 construct: expressed in transfected cells; host or cells: COS cells
Method: (§1) Assay for D2 and D3 Receptor Binding Activity
(§2) Pellets of COS cells containing recombinantly produced D2 or D3 receptors from African Green monkey were used for the assays. The sample is homogenized in 100 volumes (w/vol) of 0.05 M Tris HCl buffer at 4° C. and pH 7.4. The sample is then centrifuged at 30,000 ×g and resuspended and rehomogenized. The sample is then centrifuged as described and the final tissue sample is frozen until use. The tissue is resuspended 1:20 (wt/vol) in 0.05 M Tris HCl buffer containing 100 mM NaCl.
Incubations are carried out at 48° C. and contain 0.4 ml of tissue sample, 0.5 nM ^3 H-YM 09151-2 and the compound of interest in a total incubation of 1.0 ml. Nonspecific binding is defined as that binding found in the presence of […] spiperone; without further additions, nonspecific binding is less than 20% of total binding. The binding characteristics of representative compounds of the invention for D2 and D3 receptor subtypes are shown in Table 2 for rat striatal homogenates.

D2 receptors = assay: D2 receptor binding (displacement of 0.5 nM 3H-YM 09151-2); parameters: species or system African Green monkey; details: pellets of COS cells with recombinant D2, nonspecific binding with 1 mM spiperone
Method: as §1, §2
The binding characteristics of representative compounds of the invention for D2 and D3 receptor subtypes are shown in Table 2 for rat striatal homogenates.

T1 sequence (P52703 whole entry): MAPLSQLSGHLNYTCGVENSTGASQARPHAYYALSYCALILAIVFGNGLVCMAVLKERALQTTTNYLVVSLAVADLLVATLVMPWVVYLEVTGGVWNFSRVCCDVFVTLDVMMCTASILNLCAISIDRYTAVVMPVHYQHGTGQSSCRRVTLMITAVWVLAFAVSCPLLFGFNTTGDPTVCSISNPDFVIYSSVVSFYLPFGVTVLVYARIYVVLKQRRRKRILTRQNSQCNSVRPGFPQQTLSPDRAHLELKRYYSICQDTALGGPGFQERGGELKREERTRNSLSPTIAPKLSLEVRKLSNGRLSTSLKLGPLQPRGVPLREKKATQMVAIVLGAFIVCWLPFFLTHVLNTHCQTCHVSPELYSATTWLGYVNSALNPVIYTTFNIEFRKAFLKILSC

| Ki (D3 receptors) [µM] | Ki (D2 receptors) [µM] | Compound |
| --- | --- | --- |
| 0.004 | 0.154 | O=C(NCCCCN1CCN(c2cccc(Cl)c2Cl)CC1)c1ccc2c(c1)C(=O)c1ccccc1C2=O [Compound 1, N-(1-{4-[4-(2,3-Dichlorophenyl)piperazin-1-yl]}butyl)-2anthraquinonecarboxamide hydrochloride] |
| 0.002 | 0.061 | Cc1c(Cl)cccc1N1CCN(CCCCNC(=O)c2ccc3c(c2)C(=O)c2ccccc2C3=O)CC1 [Compound 4, N-(1-{4-[4-(2-Methyl-3-chlorophenyl)piperazin-1-yl]}butyl)-2-anthraquinonecarboxamide hydrochloride] |

| Compound | Ki (D3 receptors) [µM] | Ki (D2 receptors) [µM] |
| --- | --- | --- |
| N-(1-{4-[4(8-Quinolinyl)piperazin-1-yl]}butyl)-2-anthraquinonecarboxamide hydrochloride [Compound 6] |  | 0.045 |

Reference: patent publication US5922879A, “N-aminoalkyl-2-anthraquinonecarboxamides: new dopamine receptor subtype specific ligands” (Neurogen Corporation, priority 1997, dated 1999)
